Assay results from publication PMC5338263, “GS-5734 and its parent nucleoside analog inhibit Filo-, Pneumo-, and Paramyxoviruses” (Scientific Reports, 2017).
Like-named read-outs stand apart in the source and are kept apart here.

Columns and labels:
[1] = system: TBEV Hypr (Tick-borne Encephalitis virus); experiment: in vitro; settings: human
MARV Rec. Bat371-Gluc [2] = experiment: organism not typed; settings: Huh-7
[3] = system: reporter and wild-type filo-, pneumo-, and paramyxoviruses
EBOV minigenome = experiment: cells; assay type: cell-based, Ebola virus
MARV Rec. Bat371-GFP = experiment: organism not typed; settings: Huh-7
[4] = system: reporter and wild-type filo-, pneumo-, and paramyxoviruses; experiment: organism not typed; settings: read-out: EC50 values (range over viruses)
Arena = experiment: Potency by virus family (Fig. 2), Arena; assay type: cell-based; settings: read-out: potency class (EC50)
ANDV Chile 9717869 = experiment: microbe, parasite or virus in culture; settings: Orthohantavirus andesense, Huh-7
Filo (filoviruses) [5] = settings: cited from earlier work
HeV 1996 [6] = experiment: microbe, parasite or virus in culture; settings: Henipavirus hendraense, HeLa
NiV M-1999 [7] = experiment: microbe, parasite or virus in culture; settings: Henipavirus nipahense
[8] = system: LASV Josiah (Lassa virus); experiment: in vitro; settings: human
[9] = system: ANDV Chile 9717869 (Andes virus); experiment: in vitro; settings: human
NiV B-2004 (Nipah virus) [10] = experiment: in vitro; settings: human
Paramyxo = experiment: Potency by virus family (Fig. 2), Paramyxo; assay type: cell-based; settings: read-out: potency class (EC50)
[11] = Cell viability assay (CellTiter-Glo 2.0), macrophages; settings: human, uninfected peripheral blood macrophages (Mϕ)
Filo (filoviruses) [12] = experiment: organism not typed; assay type: cell-based; settings: read-out: potency class (EC50)
[13] = system: KFDV P9605 (Kyasanur Forest Disease virus); experiment: in vitro; settings: human
HeV 1996 [14] = system: HeV 1996
Bunya = experiment: Potency by virus family (Fig. 2), Bunya; assay type: cell-based; settings: read-out: potency class (EC50)
MARV Rec. Bat371-Gluc [15] = system: MARV Rec. Bat371-Gluc
Rhabdo = experiment: Potency by virus family (Fig. 2), Rhabdo; assay type: cell-based; settings: read-out: potency class (EC50)
HeV 1996 (Hendra virus) [16] = experiment: in vitro; settings: human
[17] = system: AHFV 200300001 (Alkhurma Hemorrhagic Fever virus); experiment: in vitro; settings: human
Ebola virus = settings: human, in vivo; cited from earlier work
NiV M-1999 [18] = experiment: microbe, parasite or virus in culture; assay type: cell-based, Nipah virus; settings: Henipavirus nipahense, HeLa
NiV B-2004 [19] = system: NiV B-2004
AHFV 200300001 = experiment: organism not typed; settings: A549
[20] = Cell viability assay (CellTiter-Glo 2.0), HeLa; settings: human, uninfected HeLa cells
hMPV Rec. CAN97-83-GFP = experiment: microbe, parasite or virus in culture; assay type: cell-based; settings: human metapneumovirus, Vero
[21] = system: MV EZ vaccine (Measles virus); experiment: in vitro; settings: human
MV EZ vaccine [22] = experiment: microbe, parasite or virus in culture; settings: Measles morbillivirus, HeLa
MV EZ vaccine [23] = system: MV EZ vaccine
EBOV wt Makona = experiment: microbe, parasite or virus in culture; assay type: cell-based, Ebola virus; settings: Zaire ebolavirus, Huh-7
[24] = Cell viability assay (CellTiter-Glo 2.0), 293T/17; settings: human, uninfected 293T/17 cells
HeV 1996 (Hendra virus) [25] = experiment: in vitro; settings: human; remark: listed apart in the source
MV, hPIV3, hMPV, and RSV = experiment: organism not typed; assay type: cell-based; settings: read-out: EC50 values (range over viruses)
NiV B-2004 [26] = experiment: microbe, parasite or virus in culture; settings: Henipavirus nipahense, HeLa
NiV B-2004 (Nipah virus) [27] = experiment: in vitro; settings: human; remark: listed apart in the source
[28] = system: recombinant reporter-expressing NiV, EBOV, and Marburg viruses (MARV); experiment: microbe, parasite or virus in culture; assay type: cell-based; settings: Zaire ebolavirus, read-out: EC50 values (range over viruses)
hPIV3 = settings: cited from earlier work

Compound `CCC(CC)COC(=O)[C@H](C)N[P@](=O)(OC[C@H]1O[C@@](C#N)(c2ccc3c(N)ncnn23)[C@H](O)[C@@H]1O)Oc1ccccc1` [GS-5734] has a selectivity ratio [1] of 4.8, an EC50 (MARV Rec. Bat371-Gluc [2]) of 19.3 nM and an EC90 (MARV Rec. Bat371-Gluc [2]) of 52 nM. The “EC50 lower than the 50% cytotoxic concentrations” value [3] was at least 150 fold, the “higher antiviral potency relative to Nuc” value [3] was 10 to 100 fold and the EC50 (EBOV minigenome) was “sub-micromolar range”. For the same compound, the EC50 (EBOV minigenome; Zaire ebolavirus, Huh-7, 48 h) was 420 nM, the EC50 (MARV Rec. Bat371-GFP) was 13.9 ± 0.3 nM and the EC90 (MARV Rec. Bat371-GFP) was 47 nM. For the same compound, the EC50 [4] was 3 to 790 nM, the EC50 (Arena) was over 4000 nM and the EC50 (ANDV Chile 9717869) was 6950 ± 3100 nM. The EC90 (ANDV Chile 9717869) was 10100 nM, the “activity in cell-based antiviral assays” value (Filo (filoviruses) [5]) was “shown activity” and the EC50 (HeV 1996 [6]) was 54.8 ± 1.3 nM. The EC90 (HeV 1996 [6]) was 117 nM, the EC50 (NiV M-1999 [7]) was 47 nM and the EC90 (NiV M-1999 [7]) was 83 nM. It also gave a selectivity ratio [8] of 2.2, a selectivity ratio [9] of 1.4 and a selectivity ratio (NiV B-2004 (Nipah virus) [10]) of 259. The EC50 (Paramyxo) was under 100 nM, the CC50 at 72 h [11] was 2000 nM and the EC50 (Filo (filoviruses) [12]) was under 100 nM. The selectivity ratio [13] was 5.6, the EC50 (HeV 1996 [14]) was 55 nM and the EC50 (Bunya) was over 4000 nM. It also gave an EC50 (MARV Rec. Bat371-Gluc [15]) of 19 nM, an EC50 (Rhabdo) of over 4000 nM and a selectivity ratio (HeV 1996 (Hendra virus) [16]) of 150. The selectivity ratio [17] was 2.4, the EC50 (EBOV Rec. Mayinga-Gluc) was 21 nM and the EC50 (LASV Josiah) was 4500 nM. The survival of patients (Ebola virus) was “both of whom survived”, the EC50 (NiV M-1999 [18]) was 65.5 ± 16 nM and the EC50 (EBOV Makona) was 3 nM. For the same compound, the “reduction in virus yield” value (EBOV Makona) was “greater than 4”, the EC50 (NiV B-2004 [19]) was 32 nM and the EC50 (AHFV 200300001) was 4150 ± 480 nM. The EC90 (AHFV 200300001) was 17600 nM and the CC50 at 72 h [20] was 8300 nM.

With `N#C[C@@]1(c2ccc3c(N)ncnn23)O[C@H](CO)[C@@H](O)[C@H]1O` [Nuc] the EC50 (EBOV Rec. Mayinga-GFP) was 1600 nM, the “EC50 lower than the 50% cytotoxic concentrations” value [3] was “at least 16 fold” and the EC50 (MARV Rec. Bat371-GFP) was 1860 ± 130 nM. It also gave an EC90 (MARV Rec. Bat371-GFP) of 4600 nM, an EC50 (hMPV Rec. CAN97-83-GFP) of 730 nM and an EC90 (hMPV Rec. CAN97-83-GFP) of 1700 nM. The selectivity ratio [21] was 25, the EC90 (NiV M-1999 [7]; HeLa) was 1400 nM and the EC50 (MV EZ vaccine [22]) was 2010 nM. For the same compound, the EC90 (MV EZ vaccine [22]) was 5100 nM, the EC50 (MV EZ vaccine [23]) was 2000 nM and the EC50 (EBOV wt Makona) was 1610 ± 420 nM. The CC50 at 72 h [24] was over 50000 nM, the selectivity ratio (HeV 1996 (Hendra virus) [25]) was 50 and the EC50 (MV, hPIV3, hMPV, and RSV) was 500 to 2000 nM. For the same compound, the EC90 (NiV B-2004 [26]) was 2200 nM, the EC50 (EBOV Makona) was 1000 nM and the “reduction in virus yield” value (EBOV Makona) was “greater than 5”. It also gave a selectivity ratio (NiV B-2004 (Nipah virus) [27]) of 60, an EC50 (AHFV 200300001) of 49900 ± 2060 nM and an EC90 (AHFV 200300001) of over 150000 nM. The EC50 [28] was 1000 to 3000 nM, the “antiviral activity (active or not)” value (hPIV3) was “shown to have activity” and the CC50 at 72 h [20] was over 50000 nM.
